In the test the test system is Peripheral blood mononuclear cells (PBMCs). In words: BrdU proliferation assay of PBMCs incubated with p16INK4a peptides. Type of test: cell-based, human. To be noted: first reacting patient; PBMCs from women with CIN2/3. On the procedure: Peripheral blood mononuclear cells (PBMCs) from 13 women with p16^INK4a-expressing high grade cervical dysplasia (CIN2/3) were incubated with p16^INK4a peptides (Table 1) to determine the proliferative capacity of the immune cells by applying a BrdU assay as a global measure for lymphoproliferative potential after challenge with the p16^INK4a peptides. The BrdU-assay is a colorimetric immunoassay applied for the quantification of cell proliferation based on the measurement of the thymidine analogue 5-bromo-2'-deoxyuridine incorporation during DNA synthesis. PBMCs in IMDM medium supplemented with 10% human serum were seeded in a 96-well-microtiter-plate (flat bottom) at a density of 150.000 cells/50µl/well. Cells in each 4 replicate wells were incubated in the presence of the seven p16INK4a peptides (Table 1), tetanus toxoid (20 ng/ml, Calbiochem, La Jolla, CA) and mitogen PHA-L (5 µg/ml, Roche, Mannheim, Germany) as positive controls and no antigen as negative control for 6 days at 37°C, 5% CO2. […] The enzyme reaction was stopped by adding 25 µl/well 1N H2SO4 and optical density (OD) was measured at 450 nm (reference wavelength 620 nm). […]

On to “GHRDVARYLRAAAGGTRGSNHARIDAAEGPSDIPD [p16INK4a_123-156]”, for which the “response (proliferation, BrdU assay)” value is on record as “showed response”.

Values taken from EP2573105B1, “p16INK4a derived peptides for prophylaxis and therapy of HPV-associated tumors and other p16INK4a expressing tumors” (Ruprecht-Karls-Universität Heidelberg, priority 2011, dated 2013).
